Measured values: patent US7541368B2, “Pyrazoles as inhibitors of tumor necrosis factor” (Aventis Pharmaceuticals Inc., priority 2003, dated 2009)

Each compound was assayed on TNF-alpha release in THP-1 cells (assay: LPS-induced TNF-alpha release in THP-1 cells). Conditions: Homo sapiens, THP-1, LPS-stimulated THP-1 cells; read-out: 50% inhibition in the LPS-induced TNF-alpha release in THP-1 cells assay at concentrations within the range.
Type: cell-based
How it was run: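 Undifferentiated THP-1 monocytes (1×10^6 cells/ml, 1% FCS) preincubated 1 h at 37° C with compound (1×10^−9 to 1×10^−6 M, 0.3% DMSO), then stimulated with LPS (20 μg/ml) for 18 h. Supernatant TNF-alpha measured by sandwich ELISA (TMB read-out), interpolated from a log/log standard curve (0.125-16 ng/ml).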

SMILES	IC50
COc1ccc(OCC(F)(F)F)c(C(=O)N2CCC(Cc3cccc(NC(=O)Nc4cc(C(C)(C)C)nn4-c4ccc(C)cc4)c3)CC2)c1 [Compound A132, 1-(5-tert-Butyl-2-p-tolyl-2H-pyrazol-3-yl)-3-(3-{1-[5-methoxy-2-(2,2,2-trifluoro-ethoxy)-benzoyl]-piperidin-4-ylmethyl}-phenyl)-urea]	10 to 500 nM
COc1cc(N)c(Cl)cc1C(=O)N1C2CCC1CC(Cc1ccc(NC(=O)Nc3cc(C(C)(C)C)nn3-c3ccc(C)cc3)cc1)C2 (stereo not shown) [Compound A1441, 1-{4-[8-(4-Amino-5-chloro-2-methoxy-benzoyl)-8-aza-bicyclo[3.2.1]oct-3-ylmethyl]-phenyl}-3-(5-tert-butyl-2-p-tolyl-2H-pyrazol-3-yl)-urea]	10 to 500 nM
COc1ccc(C)cc1S(=O)(=O)N1CCC(Cc2ccc(NC(=O)Nc3cc(C(C)(C)C)nn3-c3ccc(C)cc3)cc2)CC1 [Compound A592, 1-(5-tert-Butyl-2-p-tolyl-2H-pyrazol-3-yl)-3-{4-[1-(2-methoxy-5-methyl-benzenesulfonyl)-piperidin-4-ylmethyl]-phenyl}-urea]	10 to 500 nM
COc1ccc(CC(=O)N2CCC(Cc3cccc(NC(=O)Nc4cc(C(C)(C)C)nn4-c4ccc(C)cc4)c3)CC2)cc1 [Compound A122, 1-(5-tert-Butyl-2-p-tolyl-2H-pyrazol-3-yl)-3-(3-{1-[2-(4-methoxy-phenyl)-acetyl]-piperidin-4-ylmethyl}-phenyl)-urea]	10 to 500 nM
Cc1ccc(-n2nc(C(C)(C)C)cc2NC(=O)Nc2ccc(CC3CCN(C(=O)CC4CCCC4)CC3)cc2)cc1 [Compound A349, 1-(5-tert-Butyl-2-p-tolyl-2H-pyrazol-3-yl)-3-{4-[1-(2-cyclopentyl-acetyl)-piperidin-4-ylmethyl]-phenyl}-urea]	10 to 500 nM
CC(=O)c1ccc(NC(=O)N2CCC(Cc3cccc(NC(=O)Nc4cc(C(C)(C)C)nn4-c4ccc(C)cc4)c3)CC2)cc1 [Compound A403, 4-{3-[3-(5-tert-Butyl-2-p-tolyl-2H-pyrazol-3-yl)-ureido]-benzyl}-piperidine-1-carboxylic acid (4-acetyl-phenyl)-amide]	10 to 500 nM
Cc1ccc(-n2nc(C(C)(C)C)cc2NC(=O)Nc2ccc(CC3CCN(C(=O)c4ccc(S(C)(=O)=O)cc4Cl)CC3)cc2)cc1 [Compound A233, 1-(5-tert-Butyl-2-p-tolyl-2H-pyrazol-3-yl)-3-{4-[1-(2-chloro-4-methanesulfonyl-benzoyl)-piperidin-4-ylmethyl]-phenyl}-urea]	10 to 500 nM
COc1ccc2c(CC(=O)N3C4CCC3CC(Cc3cccc(NC(=O)Nc5cc(C(C)(C)C)nn5-c5ccc(C)cc5)c3)C4)coc2c1 (stereo not shown) [Compound A618, 1-(5-tert-Butyl-2-p-tolyl-2H-pyrazol-3-yl)-3-(3-{8-[2-(6-methoxy-benzofuran-3-yl)-acetyl]-8-aza-bicyclo[3.2.1]oct-3-ylmethyl}-phenyl)-urea]	10 to 500 nM
COc1cccc(C(=O)N2CCC(Cc3ccc(NC(=O)Nc4cc(C(C)(C)C)nn4-c4ccc(C)cc4)cc3)CC2)c1OC [Compound A212, 1-(5-tert-Butyl-2-p-tolyl-2H-pyrazol-3-yl)-3-{4-[1-(2,3-dimethoxy-benzoyl)-piperidin-4-ylmethyl]-phenyl}-urea]	10 to 500 nM
COc1ccc(C(=O)N2CCC(Cc3ccc(NC(=O)Nc4cc(C(C)(C)C)nn4-c4ccc(C)cc4)cc3)CC2)c(OC)n1 [Compound A224, 1-(5-tert-Butyl-2-p-tolyl-2H-pyrazol-3-yl)-3-{4-[1-(2,6-dimethoxy-pyridine-3-carbonyl)-piperidin-4-ylmethyl]-phenyl}-urea]	10 to 500 nM
Cc1ccc(-n2nc(C(C)(C)C)cc2NC(=O)Nc2ccc(CC3CCN(C(=O)c4csc(-c5cccnc5)n4)CC3)cc2)cc1 [Compound A225, 1-(5-tert-Butyl-2-p-tolyl-2H-pyrazol-3-yl)-3-{4-[1-(2-pyridin-3-yl-thiazole-4-carbonyl)-piperidin-4-ylmethyl]-phenyl}-urea]	10 to 500 nM
Cc1ccc(-n2nc(C(C)(C)C)cc2NC(=O)Nc2ccc(CC3CCN(C(=O)Cc4ccccc4F)CC3)cc2)cc1 [Compound A236, 1-(5-tert-Butyl-2-p-tolyl-2H-pyrazol-3-yl)-3-(4-{1-[2-(2-fluoro-phenyl)-acetyl]-piperidin-4-ylmethyl}-phenyl)-urea]	10 to 500 nM
Cc1ccc(-n2nc(C(C)(C)C)cc2NC(=O)Nc2ccc(CC3CCN(S(=O)(=O)c4ccccc4Cl)CC3)cc2)cc1 [Compound A567, 1-(5-tert-Butyl-2-p-tolyl-2H-pyrazol-3-yl)-3-{4-[1-(2-chloro-benzenesulfonyl)-piperidin-4-ylmethyl]-phenyl}-urea]	10 to 500 nM
Cc1ccc(-n2nc(C(C)(C)C)cc2NC(=O)Nc2cccc(CC3CC4CCC(C3)N4C(=O)Cc3ccccc3F)c2)cc1 (stereo not shown) [Compound A761, 1-(5-tert-Butyl-2-p-tolyl-2H-pyrazol-3-yl)-3-(3-{8-[2-(2-fluoro-phenyl)-acetyl]-8-aza-bicyclo[3.2.1]oct-3-ylmethyl}-phenyl)-urea]	10 to 500 nM
Cc1ccc(-n2nc(C(C)(C)C)cc2NC(=O)Nc2cccc(CC3CCN(C(=O)c4coc5c4C(=O)CCC5)CC3)c2)cc1 [Compound A154, 1-(5-tert-Butyl-2-p-tolyl-2H-pyrazol-3-yl)-3-{3-[1-(4-oxo-4,5,6,7-tetrahydro-benzofuran-3-carbonyl)-piperidin-4-ylmethyl]-phenyl}-urea]	10 to 500 nM
Cc1ccc(-n2nc(C(C)(C)C)cc2NC(=O)Nc2ccc(CC3CCN(C(=O)Cc4c[nH]c5ccccc45)CC3)cc2)cc1 [Compound A358, 1-(5-tert-Butyl-2-p-tolyl-2H-pyrazol-3-yl)-3-{4-[1-(2-1H-indol-3-yl-acetyl)-piperidin-4-ylmethyl]-phenyl}-urea]	10 to 500 nM
Cc1ccc(-n2nc(C(C)(C)C)cc2NC(=O)Nc2ccc(CC3CCN(C(=O)c4ccc(OC(F)F)cc4)CC3)cc2)cc1 [Compound A306, 1-(5-tert-Butyl-2-p-tolyl-2H-pyrazol-3-yl)-3-{4-[1-(4-difluoromethoxy-benzoyl)-piperidin-4-ylmethyl]-phenyl}-urea]	10 to 500 nM
Cc1ccc(-n2nc(C(C)(C)C)cc2NC(=O)Nc2ccc(CC3CCN(C(=O)c4cc5cccnc5nc4C)CC3)cc2)cc1 [Compound A249, 1-(5-tert-Butyl-2-p-tolyl-2H-pyrazol-3-yl)-3-{4-[1-(2-methyl-[1,8]naphthyridine-3-carbonyl)-piperidin-4-ylmethyl]-phenyl}-urea]	10 to 500 nM

Second part, the compound after the results:

IC50	SMILES
10 to 500 nM	Cc1ccc(-n2nc(C(C)(C)C)cc2NC(=O)Nc2cccc(CC3CCN(C(=O)c4ccco4)CC3)c2)cc1 [Compound A45, 1-(5-tert-Butyl-2-p-tolyl-2H-pyrazol-3-yl)-3-{3-[1-(furan-2-carbonyl)-piperidin-4-ylmethyl]-phenyl}-urea]
10 to 500 nM	Cc1ccc(-n2nc(C(C)(C)C)cc2NC(=O)Nc2cccc(CC3CCN(C(=O)c4ccc(-c5cnco5)cc4)CC3)c2)cc1 [Compound A106, 1-(5-tert-Butyl-2-p-tolyl-2H-pyrazol-3-yl)-3-{3-[1-(4-oxazol-5-yl-benzoyl)-piperidin-4-ylmethyl]-phenyl}-urea]
10 to 500 nM	Cc1ccc(-n2nc(C(C)(C)C)cc2NC(=O)Nc2cccc(CC3CCN(C(=O)c4ccc(S(C)(=O)=O)cc4Cl)CC3)c2)cc1 [Compound A40, 1-(5-tert-Butyl-2-p-tolyl-2H-pyrazol-3-yl)-3-{3-[1-(2-chloro-4-methanesulfonyl-benzoyl)-piperidin-4-ylmethyl]-phenyl}-urea]
10 to 500 nM	Cc1ccc(-n2nc(C(C)(C)C)cc2NC(=O)Nc2cccc(CC3CCN(C(=O)Cc4cccs4)CC3)c2)cc1 [Compound A189, 1-(5-tert-Butyl-2-p-tolyl-2H-pyrazol-3-yl)-3-{3-[1-(2-thiophen-2-yl-acetyl)-piperidin-4-ylmethyl]-phenyl}-urea]
10 to 500 nM	Cc1ccc(-n2nc(C(C)(C)C)cc2NC(=O)Nc2cccc(CC3CCN(C(=O)c4ccsc4)CC3)c2)cc1 [Compound A99, 1-(5-tert-Butyl-2-p-tolyl-2H-pyrazol-3-yl)-3-{3-[1-(thiophene-3-carbonyl)-piperidin-4-ylmethyl]-phenyl}-urea]
10 to 500 nM	Cc1ccc(-n2nc(C(C)(C)C)cc2NC(=O)Nc2cccc(CC3CCN(C(=O)c4ccoc4)CC3)c2)cc1 [Compound A92, 1-(5-tert-Butyl-2-p-tolyl-2H-pyrazol-3-yl)-3-{3-[1-(furan-3-carbonyl)-piperidin-4-ylmethyl]-phenyl}-urea]
10 to 500 nM	Cc1ccc(-n2nc(C(C)(C)C)cc2NC(=O)Nc2cccc(CC3CCN(C(=O)CCc4cccs4)CC3)c2)cc1 [Compound A83, 1-(5-tert-Butyl-2-p-tolyl-2H-pyrazol-3-yl)-3-{3-[1-(3-thiophen-2-yl-propionyl)-piperidin-4-ylmethyl]-phenyl}-urea]
10 to 500 nM	Cc1ccc(-n2nc(C(C)(C)C)cc2NC(=O)Nc2cccc(CC3CCN(C(=O)c4cc(C)oc4C)CC3)c2)cc1 [Compound A29, 1-(5-tert-Butyl-2-p-tolyl-2H-pyrazol-3-yl)-3-{3-[1-(2,5-dimethyl-furan-3-carbonyl)-piperidin-4-ylmethyl]-phenyl}-urea]
10 to 500 nM	Cc1ccc(-n2nc(C(C)(C)C)cc2NC(=O)Nc2cccc(CC3CCN(C(=O)c4ccc5ncsc5c4)CC3)c2)cc1 [Compound A150, 1-{3-[1-(Benzothiazole-6-carbonyl)-piperidin-4-ylmethyl]-phenyl}-3-(5-tert-butyl-2-p-tolyl-2H-pyrazol-3-yl)-urea]
10 to 500 nM	Cc1ccc(-n2nc(C(C)(C)C)cc2NC(=O)Nc2cccc(CC3CCN(C(=O)c4ccc(OC(F)F)cc4)CC3)c2)cc1 [Compound A111, 1-(5-tert-Butyl-2-p-tolyl-2H-pyrazol-3-yl)-3-{3-[1-(4-difluoromethoxy-benzoyl)-piperidin-4-ylmethyl]-phenyl}-urea]
